Experimental data taken from patent US8603550B1, “Compositions for topical treatment” (priority 2013, dated 2013).

Legend:
[1] = tested on: Staphylococcus aureus ATCC 33592 (MRSA); experiment: Zone of inhibition test (agar well); format: cell-based; conditions: S. aureus ATCC 33592 (methicillin resistant); 7 mm well, 37° C., 24 hours
Method: (§1) An overnight culture of the test organism is diluted to 0.40 OD at 600 nm and then further diluted 10^−2 to obtain approximately 3×10^6 CFU/ml for the inoculation of TSA or SDA plates as follows: a 0.5 ml volume is spread across the surface of a sterile agar plate and allowed to dry. A 7 mm well is made in the center of the agar plate and approximately 0.2 ml of product is pipetted into the well. Additionally, Finipil is tested against S. aureus. The plates are incubated at 37° C. for 24 hours and the zones of inhibition are determined by measuring the diameter of the clear circular area around the product filled well.
(§2) *Becton Dickinson BBL Cefoxitin 30 microgram Sensi-Disk® sensitivity disks will be used to indicate susceptibility to Methicillin

[2] = tested on: Staphylococcus aureus ATCC 6538 (MSSA); experiment: Zone of inhibition test (agar well); format: cell-based; conditions: S. aureus ATCC 6538; 7 mm well, about 0.2 ml product, 37° C., 24 hours
Method: as §1, §2

Structure (SMILES): CO[C@@]1(NC(=O)Cc2cccs2)C(=O)N2C(C(=O)O)=C(COC(N)=O)CS[C@@H]21 [Cefoxitin disk, Cefoxitin]
- Zone of inhibition (diameter) [1]: 10 mm
- Zone of inhibition (diameter) [2]: 33 mm
